Experimental data reported in paper PMC7465886, “4-(N-Alkyl- and -Acyl-amino)-1,2,4-triazole-3-thione Analogs as Metallo-β-Lactamase Inhibitors: Impact of 4-Linker on Potency and Spectrum of Inhibition” (Biomolecules, 2020).
Like-named read-outs stand apart in the source and are kept apart here.

Legend:
IMP-1 [1] = biological target: T1, IMP-1 (Serratia marcescens, UniProt P52699); assay: MBL inhibition, reporter substrate method, IMP-1; type: biochemical; conditions: for inhibition at 100 µM: read-out: Inhibition of IMP-1 (dash in Ki column)
T1 construct: made in house; host or cells: E. coli BL21(DE3) derivative, pET-9a
T1 sequence (P52699 19-246 limits assumed): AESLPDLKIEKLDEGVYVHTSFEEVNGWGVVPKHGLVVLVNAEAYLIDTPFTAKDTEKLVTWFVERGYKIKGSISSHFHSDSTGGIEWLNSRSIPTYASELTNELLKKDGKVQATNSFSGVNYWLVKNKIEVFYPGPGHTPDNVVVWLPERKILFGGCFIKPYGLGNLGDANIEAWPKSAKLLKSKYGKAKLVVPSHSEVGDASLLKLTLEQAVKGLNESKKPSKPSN
Protocol: (§1) Compounds were prepared in DMSO at a final concentration of 50 mM prior to dilution in the assay buffer. The reaction rate was measured as the variation of absorbance observed upon substrate hydrolysis in a UV-Vis spectrophotometer or microplate reader at a wavelength of 300 nm (imipenem, meropenem), 260 nm (cefotaxime), or 482 nm (nitrocefin) and in the presence of a purified MBL enzyme (such as VIM-1, VIM-2, VIM-4, NDM-1, and IMP-1, at a final concentration ranging from 1 to 70 nM).
(§2) These enzymes were overproduced in derivatives of E. coli BL21(DE3) carrying a pET-9 a (IMP-1, VIM-1, VIM-2, and VIM-4) or pET-15 b (NDM-1) vector into which the metallo-β-lactamase-encoding open reading frame was cloned. Bacterial strains were grown in the auto-inducing medium, ZYP-5052, supplemented with 50 μg/mL kanamycin for 24 h at 37 °C [38]. IMP-1, VIM-1, VIM-2, and VIM-4 were purified by ion-exchange and gel filtration chromatography using an AKTA Purifier platform (GE Healthcare, Uppsala, Sweden) as previously described. NDM-1 (residues 37-270) was produced as an amino-terminal 6 xHis-tag fusion protein and was purified using affinity chromatography. After growth for 26 h at 25 °C, bacterial cells were harvested by centrifugation (10,000× g, 30 min, 4 °C), resuspended in 10 mM HEPES buffer (pH 7.5) containing 0.15 M NaCl (buffer A) in one-fifth of the original culture volume, and lysed by sonication. Cellular debris was removed by centrifugation (12,000× g, 40 min, 4 °C). The clarified sample was loaded on a HisTrap HP column (bed volume, 5 mL; GE Healthcare), followed by a wash step (25 mL) with buffer A containing 20 mM imidazole. Proteins were eluted using buffer A containing 350 mM imidazole. The resulting protein sample was desalted (HiPrep 26/10 Desalting column, GE Healthcare) using 20 mM triethanolamine (pH 7.2) supplemented with 50 μM ZnSO4 and concentrated using an Amicon Ultra-15 (MW cut-off, 10 kDa; Millipore, Burlington, MA, USA). The concentrated sample was loaded on a Superdex 75 prep grade column (XK16/100 column; bed volume, 140 mL; GE Healthcare) and the proteins eluted with buffer A containing 50 μM ZnSO4. The active fractions were pooled and stored at −20 °C. The purity of the protein preparations was estimated >95% by SDS-PAGE analysis. The authenticity of the enzyme preparations was confirmed by electron spray ionization mass spectrometry, as previously described.
(§3) The inhibition constants (Ki) were determined on the basis of a model of competitive inhibition by analyzing the dependence of the ratio v0/vi (v0, hydrolysis velocity in the absence of inhibitor; vi, hydrolysis velocity in the presence of inhibitor) as a function of [I] as already described. The slope of the plot of v0/vi vs. [I], which corresponds to Km^S/(Km^S + [S])Ki (where Km^S is the Km value of the reporter substrate and [S] its concentration in the reaction mixture) and allowed the calculation of the Ki value. Alternatively, a Dixon plot analysis was carried out by measuring the initial hydrolysis rates in the presence of variable concentrations of inhibitor and substrate. This allowed Ki values to be determined and supported the hypothesis that the various compounds behaved as competitive inhibitors of the various tested enzymes. The assays were performed in triplicate.

VIM-2 [2] = biological target: T2, VIM-2 (Escherichia coli, UniProt Q5U7L7); assay: MBL inhibition, reporter substrate method, VIM-2; type: biochemical; conditions: hydrazine and hydrazide series; read-out: Ki Value VIM-2
T2 construct: made in house; host or cells: E. coli BL21(DE3) derivative, pET-9a
Protocol: as §1, §2, §3

NDM-1 [3] = biological target: T3, NDM-1 (Klebsiella pneumoniae, UniProt C7C422); assay: MBL inhibition, reporter substrate method, NDM-1; type: biochemical; conditions: for inhibition at 100 µM: read-out: Inhibition of NDM-1 (dash in Ki column)
T3 sequence (C7C422 37-270 limits assumed): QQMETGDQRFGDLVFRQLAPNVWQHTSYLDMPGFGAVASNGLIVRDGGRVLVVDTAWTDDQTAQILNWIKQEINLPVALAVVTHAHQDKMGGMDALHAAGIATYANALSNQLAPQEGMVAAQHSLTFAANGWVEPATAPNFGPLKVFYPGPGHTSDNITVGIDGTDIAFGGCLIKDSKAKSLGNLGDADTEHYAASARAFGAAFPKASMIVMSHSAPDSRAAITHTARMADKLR
Protocol: as §1, §2, §3

VIM-1 = biological target: T4, VIM-1 (Pseudomonas aeruginosa, UniProt A0A0F7KYQ8); assay: MBL inhibition, reporter substrate method, VIM-1; type: biochemical
T4 construct: made in house; host or cells: E. coli BL21(DE3) derivative, pET-9a
Protocol: as §1, §2, §3

VIM-4 [4] = biological target: T5, VIM-4 (Pseudomonas aeruginosa, UniProt A0A0F7KYQ8, S205R); assay: MBL inhibition, reporter substrate method, VIM-4; type: biochemical
T5 construct: made in house; host or cells: E. coli BL21(DE3) derivative, pET-9a
Protocol: as §1, §2, §3

L1 = biological target: T6, L1 (Stenotrophomonas maltophilia, UniProt P52700); assay: MBL inhibition, L1 (nitrocefin hydrolysis); type: biochemical; conditions: for inhibition at 100 µM: 100 μM inhibitor, read-out: Inhibition of L1 (dash)
T6 construct: made in house
T6 sequence (P52700 34-290): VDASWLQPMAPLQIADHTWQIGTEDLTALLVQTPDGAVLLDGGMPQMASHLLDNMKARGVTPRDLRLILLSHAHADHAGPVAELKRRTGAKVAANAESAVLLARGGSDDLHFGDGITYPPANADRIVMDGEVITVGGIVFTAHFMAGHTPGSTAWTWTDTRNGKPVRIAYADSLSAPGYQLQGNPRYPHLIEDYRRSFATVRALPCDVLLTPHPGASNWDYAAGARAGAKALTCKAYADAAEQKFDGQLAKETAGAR
Protocol: (§4) Compounds were prepared as 10 mM solutions in DMSO before dilution with appropriate buffers. Buffers were 25 mM Hepes pH 7.5 for CphA or 25 mM Hepes pH 7.5, 50 µM ZnCl2 for L1. The rates in the absence of inhibitor were not modified by addition of 1% DMSO. CphA and L1 enzymes, purified as previously described, were used at concentrations between 0.2 and 0.8 nM, respectively. The enzyme and the inhibitor (100 µM) were pre-incubated for 30 min in a volume of 495 µL at room temperature. The hydrolysis of a solution of 100 µM imipenem for CphA was monitored by following the absorbance variation at 300 nm using a Specord 50 PLUS spectrophotometer (Analytik Jena, Jena, Germany). For L1, the reporter substrate was nitrocefin (100 µM). The enzyme activity was measured by following the absorbance variation at 482 nm. The substrate hydrolysis was done at 30 °C. The activity was tested by measuring the initial rates in three samples without inhibitor that allowed to determine the percentage of residual β-lactamase activity in the presence of inhibitors. If the residual activity in the presence of 100 µM inhibitor was <30%, the initial rate conditions were used to study the inhibition in the presence of increasing concentrations of compounds (from 1 to 100 µM) and to determine the competitive inhibition constant Ki. The Hanes linearization of the Henri–Michaelis equation was used, and Ki was calculated on the basis of the following equation, v = (Vmax.S)/[S + Km(1 + I/Ki)]. The assays were performed in triplicates.

[5] = tested on: E. coli LZ2310(pLBII-VIM-2); assay: microbe, parasite or virus in culture; type: cell-based, Escherichia coli; conditions: for Restoration of cefoxitin activity (in words): 30 μg cefoxitin disk, compound 1 at 48 μg, EUCAST clinical breakpoints; for zone of inhibition at 120 µg/disc / zone of inhibition at 40 µg/disc: Escherichia coli, read-out: Inhibition Zone Diameter
Protocol: (§5) The potential activity of selected compounds was assessed by the agar disk-diffusion method, according to the CLSI (Clinical Laboratory Standard Institute) recommendations, using Mueller–Hinton medium. The inhibitor (dissolved in DMSO) was added (maximum volume of 15 μL) to a commercially available disk containing a defined amount of a β-lactam antibiotic (30 μg of cefoxitin (Oxoid, Milan, Italy)). After incubation (18 h at 35 °C), the diameter of the growth inhibition zone was measured and compared to that obtained in the absence of inhibitor. DMSO and EDTA (220 μg) were used as negative and positive controls, respectively. Experiments were performed in triplicate.
These tests were performed on an isogenic laboratory strain obtained after transforming Escherichia coli LZ2310 strain with a derivative of the high copy number plasmid pLB-II carrying the cloned blaVIM-2 gene harboring a cloned gene encoding the functional metallo-β-lactamase. Strain LZ2310 is a triple knockout mutant derived from K12 in which the genes encoding for components of the three major efflux pump systems were inactivated (genotype, ∆norE ∆mdfA N43 acrA1) and was used to generate an hyperpermeable background for MBL production and investigate the potential contribution of such mechanisms to inhibitor efflux.

CphA = biological target: T7, CphA (Aeromonas hydrophila, UniProt P26918); assay: MBL inhibition, CphA (imipenem hydrolysis); type: biochemical
T7 construct: made in house
T7 sequence (P26918 28-254): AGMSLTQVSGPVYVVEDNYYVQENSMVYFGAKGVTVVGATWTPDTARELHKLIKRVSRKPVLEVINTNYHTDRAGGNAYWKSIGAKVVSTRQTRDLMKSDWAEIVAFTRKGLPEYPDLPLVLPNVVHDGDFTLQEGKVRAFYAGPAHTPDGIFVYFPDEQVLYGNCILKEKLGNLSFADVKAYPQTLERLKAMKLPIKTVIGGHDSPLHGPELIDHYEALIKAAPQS
Protocol: as §4, with “If the residual activity in the presence of 100 µM inhibitor was <30%, the initial rate conditions were used to study the inhibition in the presence of increasing concentrations of compounds (from 1 to 100 µM) and to determine the competitive inhibition constant Ki.” left out, “The assays were performed in triplicates.” left out

IMP-1 [6] = biological target: T1, IMP-1; parameters: method as in PMID 32937203; conditions: in parentheses; 100 μM inhibitor; cited from earlier work
VIM-2 [7] = biological target: T2, VIM-2; conditions: Schiff base analogs; read-out: Ki Value VIM-2, hydrazone-like compound (converted); cited from earlier work
NDM-1 [8] = biological target: T3, NDM-1; parameters: method as in PMID 32937203; conditions: Schiff base analogs; read-out: Ki Value NDM-1, hydrazone-like compound (converted); cited from earlier work
VIM-4 [9] = biological target: T5, VIM-4; parameters: method as in PMID 32937203; conditions: Figure 1; read-out: Ki VIM-4, Schiff base; cited from earlier work
[10] = tested on: VIM-4-producing laboratory strain; assay: Disk diffusion on VIM-4-producing laboratory strain; type: cell-based
Protocol: as §5

[11] = read-out: Inhibition of VIM-1 (dash)

Structure (SMILES)	inhibition at 100 µM (IMP-1 [1]) [%]	Ki (VIM-2 [2]) [µM]	inhibition at 100 µM (NDM-1 [3]) [%]	Ki (VIM-4 [4]) [µM]	inhibition at 100 µM (L1) [%]	Restoration of cefoxitin activity (in words) [5]	zone of inhibition at 120 µg/disc [5] [mm]	inhibition at 100 µM (VIM-1; [11]) [%]	zone of inhibition at 40 µg/disc [5] [mm]	Ki (VIM-1) [µM]	other results
O=C(O)c1ccccc1CNn1c(-c2ccc3ccccc3c2)n[nH]c1=S [Compound 4]	< 40	4.2 ± 0.9	< 40	6.3 ± 0.7	< 30	did not show any remarkable activity	10				inhibition at 100 µM (VIM-1; read-out: Percentage of Inhibition at 100 μM Inhibitor, VIM-1): 32%
Cc1ccccc1-c1n[nH]c(=S)n1NCc1ccccc1C(=O)O [Compound 2]	< 40	8 ± 0.7	< 40	10 ± 1		did not show any remarkable activity		< 30	11		Ki (CphA): 100 ± 10 µM; Ki (L1): 110 ± 10 µM
O=C(O)c1ccccc1CNn1c(Cc2ccccc2)n[nH]c1=S [Compound 6]	< 40	8.5 ± 2.3	< 40		< 30	did not show any remarkable activity		< 30	10		inhibition at 100 µM (VIM-4 [4]; read-out: Inhibition of VIM-4 (dash)): < 30%
O=C(O)c1ccccc1/C=N/n1c(-c2ccccc2)n[nH]c1=S [JMV4390]											Inhibition of IMP-1 (dash in Ki column), corresponding hydrazone-like compound (IMP-1 [6]): -^2 (-) (<40% of inhibition in the presence of 100 μM inhibitor); Ki (VIM-2 [7]): 2700 nM; Ki (NDM-1 [8]): 38 µM; Ki (VIM-4 [9]): 1400 nM
O=C(O)c1ccccc1CNn1c(-c2cccc(-c3ccccc3)c2)n[nH]c1=S [Compound 3]		0.24 ± 0.02		0.57 ± 0.03		devoid of activity	11			3.6 ± 0.2	Ki (IMP-1 [1]; hydrazine series, read-out: Ki Value IMP-1): 76 ± 13 µM; Ki (NDM-1 [3]; hydrazine series, read-out: Ki Value NDM-1): 8.2 ± 0.7 µM; Restoration of β-lactam activity (in words) [10]: lack of restoration activity
O=C(O)c1ccccc1CNn1c(Cc2ccc3ccccc3c2)n[nH]c1=S [Compound 7]	< 40	1.8 ± 0.2	< 40	4.7 ± 0.3		did not show any remarkable activity	11			19.5 ± 1.3	
